Reference: ChEMBL document CHEMBL4387769 (Bioorg Med Chem, 2019)
pKi: −log10 of the molar value.

Columns and labels:
[1] = target: 5-hydroxytryptamine receptor 6 (Homo sapiens, UniProt P50406); assay: Displacement of [3H]LSD from human 5HT6 receptor expressed in HEK293 cell membranes after 1 hr by microbeta plate reader method
[2] = target: 5-hydroxytryptamine receptor 2A (Homo sapiens, UniProt P28223); assay: Displacement of [3H]ketanserin from human 5HT2AR expressed in CHO-K1 cell membranes after 1 hr by microbeta plate reader method
[3] = target: T1, 5-hydroxytryptamine receptor 1A (Homo sapiens, UniProt P08908); assay: Displacement of [3H]-8-OH-DPAT from human 5HT1AR expressed in HEK293 cell membranes after 1 hr by microbeta plate reader method
T1 sequence (P08908 whole entry): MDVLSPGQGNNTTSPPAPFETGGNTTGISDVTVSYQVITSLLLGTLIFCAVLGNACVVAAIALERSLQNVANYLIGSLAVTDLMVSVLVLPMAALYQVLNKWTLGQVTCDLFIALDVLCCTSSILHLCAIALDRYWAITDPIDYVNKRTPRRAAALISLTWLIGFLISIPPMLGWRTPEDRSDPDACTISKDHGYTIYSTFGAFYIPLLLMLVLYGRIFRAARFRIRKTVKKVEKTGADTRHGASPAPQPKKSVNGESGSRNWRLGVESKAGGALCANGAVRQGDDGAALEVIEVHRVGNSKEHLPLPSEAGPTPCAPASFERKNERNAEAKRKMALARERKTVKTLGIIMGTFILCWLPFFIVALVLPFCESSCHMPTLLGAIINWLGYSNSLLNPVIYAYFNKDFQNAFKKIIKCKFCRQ

D(2) dopamine receptor [4] = target: D(2) dopamine receptor (Homo sapiens, UniProt P14416); assay: Displacement of [3H]raclopride from human dopamine D2L receptor expressed in HEK293 cells incubated for 1 hr by microbeta plate reader method; type: cell-based
[5] = target: T2, 5-hydroxytryptamine receptor 7 (Homo sapiens, UniProt P34969); assay: Displacement of [3H]5-CT from human 5HT7B receptor expressed in HEK293 cell membranes after 1 hr by microbeta plate reader method
[6] = target: T2, 5-hydroxytryptamine receptor 7; assay: Binding affinity to 5HT7 (unknown origin)
[7] = target: T2, 5-hydroxytryptamine receptor 7; assay: Displacement of [3H]5-CT from human 5HT7 receptor expressed in COS7 cells incubated for 30 mins by liquid scintillation counting method; type: cell-based
D(2) dopamine receptor [8] = target: D(2) dopamine receptor (Rattus norvegicus, UniProt P61169); assay: Displacement of [3H]spiperone from dopamine D2 receptor in Sprague-Dawley rat striatal membranes incubated for 40 mins; set-up: species or system Striatum, Membrane
[9] = target: 5-hydroxytryptamine receptor 2A (Rattus norvegicus, UniProt P14842); assay: Displacement of [3H]ketanserin from 5HT2A receptor in rat cortical membranes incubated for 15 mins by liquid scintillation spectrometry; type: cell membranes
Chain of 5-hydroxytryptamine receptor 2A (Rattus norvegicus, UniProt P14842) (P14842 whole entry): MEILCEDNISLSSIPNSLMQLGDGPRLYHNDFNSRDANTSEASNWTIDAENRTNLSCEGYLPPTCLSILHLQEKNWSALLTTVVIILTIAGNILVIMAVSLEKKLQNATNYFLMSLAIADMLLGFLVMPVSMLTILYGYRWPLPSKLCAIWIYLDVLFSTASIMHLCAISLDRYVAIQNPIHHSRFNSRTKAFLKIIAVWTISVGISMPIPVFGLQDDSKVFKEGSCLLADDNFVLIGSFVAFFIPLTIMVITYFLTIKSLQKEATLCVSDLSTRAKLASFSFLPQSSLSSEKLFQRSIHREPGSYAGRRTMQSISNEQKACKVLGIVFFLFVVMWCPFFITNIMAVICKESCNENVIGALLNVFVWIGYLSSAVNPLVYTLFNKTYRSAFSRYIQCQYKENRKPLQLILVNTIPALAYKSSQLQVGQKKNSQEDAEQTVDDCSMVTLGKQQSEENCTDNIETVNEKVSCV

Chain of D(2) dopamine receptor (Rattus norvegicus, UniProt P61169) (P61169 whole entry): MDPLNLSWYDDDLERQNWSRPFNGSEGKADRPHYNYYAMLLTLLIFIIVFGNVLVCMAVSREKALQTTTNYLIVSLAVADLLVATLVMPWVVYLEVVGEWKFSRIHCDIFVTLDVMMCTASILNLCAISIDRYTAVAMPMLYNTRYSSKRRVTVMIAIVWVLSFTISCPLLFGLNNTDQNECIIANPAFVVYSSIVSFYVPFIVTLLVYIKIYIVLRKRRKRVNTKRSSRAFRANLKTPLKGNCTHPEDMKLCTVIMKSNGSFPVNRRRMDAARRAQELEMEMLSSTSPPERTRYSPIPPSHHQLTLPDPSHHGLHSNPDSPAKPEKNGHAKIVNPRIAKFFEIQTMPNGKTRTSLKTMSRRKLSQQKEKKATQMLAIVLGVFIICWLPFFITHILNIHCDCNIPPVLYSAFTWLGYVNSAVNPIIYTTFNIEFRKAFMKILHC
Chain of 5-hydroxytryptamine receptor 6 (P50406 whole entry): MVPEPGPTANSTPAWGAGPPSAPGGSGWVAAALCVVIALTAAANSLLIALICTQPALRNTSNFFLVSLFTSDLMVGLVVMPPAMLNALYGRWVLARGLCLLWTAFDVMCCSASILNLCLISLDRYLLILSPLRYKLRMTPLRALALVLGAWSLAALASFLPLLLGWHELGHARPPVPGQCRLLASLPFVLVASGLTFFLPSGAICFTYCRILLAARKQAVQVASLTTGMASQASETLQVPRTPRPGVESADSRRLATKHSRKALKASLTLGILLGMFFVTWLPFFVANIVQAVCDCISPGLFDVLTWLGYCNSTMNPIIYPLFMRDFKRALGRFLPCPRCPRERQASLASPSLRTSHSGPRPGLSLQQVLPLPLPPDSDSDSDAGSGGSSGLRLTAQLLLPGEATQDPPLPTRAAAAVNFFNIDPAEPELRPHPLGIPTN
Chain of D(2) dopamine receptor (Homo sapiens, UniProt P14416) (P14416 whole entry): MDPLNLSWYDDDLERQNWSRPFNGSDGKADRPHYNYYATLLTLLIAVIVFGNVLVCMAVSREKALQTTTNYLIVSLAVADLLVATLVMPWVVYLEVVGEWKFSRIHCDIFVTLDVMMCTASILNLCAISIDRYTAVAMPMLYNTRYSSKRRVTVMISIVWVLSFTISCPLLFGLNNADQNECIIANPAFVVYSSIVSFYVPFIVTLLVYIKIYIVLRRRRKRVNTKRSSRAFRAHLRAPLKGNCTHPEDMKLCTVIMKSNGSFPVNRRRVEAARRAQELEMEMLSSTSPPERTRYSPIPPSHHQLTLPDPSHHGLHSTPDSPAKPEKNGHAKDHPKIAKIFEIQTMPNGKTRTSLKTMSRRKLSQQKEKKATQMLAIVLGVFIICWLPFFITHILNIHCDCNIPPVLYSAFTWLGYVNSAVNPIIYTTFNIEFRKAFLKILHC
Chain of 5-hydroxytryptamine receptor 2A (Homo sapiens, UniProt P28223) (P28223 whole entry): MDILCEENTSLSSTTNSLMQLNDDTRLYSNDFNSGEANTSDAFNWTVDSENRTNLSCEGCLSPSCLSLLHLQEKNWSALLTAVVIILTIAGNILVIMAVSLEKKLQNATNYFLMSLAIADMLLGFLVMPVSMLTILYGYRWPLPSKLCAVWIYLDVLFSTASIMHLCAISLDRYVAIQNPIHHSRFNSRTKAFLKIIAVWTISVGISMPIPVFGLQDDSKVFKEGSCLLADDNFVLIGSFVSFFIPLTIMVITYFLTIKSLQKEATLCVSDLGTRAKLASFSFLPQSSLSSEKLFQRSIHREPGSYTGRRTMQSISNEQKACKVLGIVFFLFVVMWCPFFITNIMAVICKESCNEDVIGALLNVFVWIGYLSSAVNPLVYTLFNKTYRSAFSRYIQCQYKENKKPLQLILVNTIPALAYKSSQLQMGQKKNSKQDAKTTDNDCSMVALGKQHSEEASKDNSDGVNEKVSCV
T2 sequence (P34969 whole entry): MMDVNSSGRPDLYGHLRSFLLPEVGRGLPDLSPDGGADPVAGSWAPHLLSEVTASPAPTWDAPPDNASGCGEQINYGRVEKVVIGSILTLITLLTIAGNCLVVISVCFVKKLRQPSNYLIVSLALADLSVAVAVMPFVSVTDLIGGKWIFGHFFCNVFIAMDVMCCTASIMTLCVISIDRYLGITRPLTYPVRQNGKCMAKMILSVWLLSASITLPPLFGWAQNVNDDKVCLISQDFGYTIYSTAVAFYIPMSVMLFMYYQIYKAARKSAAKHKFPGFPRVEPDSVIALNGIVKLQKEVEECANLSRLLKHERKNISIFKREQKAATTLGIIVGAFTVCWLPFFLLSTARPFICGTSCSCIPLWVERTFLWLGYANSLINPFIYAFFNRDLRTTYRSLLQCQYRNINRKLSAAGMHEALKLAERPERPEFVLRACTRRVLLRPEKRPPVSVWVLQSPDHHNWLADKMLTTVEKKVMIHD

Question: How did the pKi [1] turn out when `O=C1c2cccc3cccc(c23)N1CCCCCCN1CCN(c2ccccc2Cl)CC1` was run?
Answer: 5.77

Question: And the pKi [2]?
Answer: 6.27

Question: And the pKi [3]?
Answer: 7.18

Question: What about the pKi (D(2) dopamine receptor [4]) of the same compound?
Answer: 7.24

Question: And the pKi [5]?
Answer: 6.47

Question: What does the source list for `O=S1(=O)c2cccc3cccc(c23)N1CCCCCCN1CCN(c2ccccc2F)CC1`?
Answer: pKi [1]: 6.15; pKi [2]: 6.42; pKi [3]: 7.09; pKi (D(2) dopamine receptor [4]): 7.05; pKi [5]: 6.69

Question: How did the pKi [6] turn out when `O=S1(=O)c2cccc3cccc(c23)N1CCCCCN1CCN(c2ccccc2)CC1` was run?
Answer: 6.70

Question: How did the pKi [7] turn out when `COc1ccc(N2CCN(CCCCC34CCCc5cccc(c53)NC4=O)CC2)cc1` (configuration not stated) was run?
Answer: 7.70

Question: How did the pKi [1] turn out when `O=C1c2cccc3cccc(c23)N1CCCCCCN1CCN(c2cccc(Cl)c2)CC1` was run?
Answer: 6.32

Question: What about the pKi [2] of the same compound?
Answer: 6.37

Question: And the pKi [3]?
Answer: 7.37

Question: And the pKi (D(2) dopamine receptor [4])?
Answer: 7.12

Question: What about the pKi [5] of the same compound?
Answer: 7.28

Question: With `O=C1Nc2cccc3c2C1(CCCCN1CCN(c2ccccc2Cl)CC1)CCC3` (configuration not stated) as the compound, how does the pKi [7] read?
Answer: 7.92

Question: `O=S1(=O)c2cccc3cccc(c23)N1CCCCCCN1CCN(c2ccccc2)CC1` was tested. Which pKi [6] did it give?
Answer: < 6.00

Question: How did the pKi [1] turn out when `O=C1c2cccc3cccc(c23)N1CCCCCCN1CCN(c2ccccc2C(F)(F)F)CC1` was run?
Answer: 5.95

Question: What about the pKi [2] of the same compound?
Answer: 5.75

Question: And the pKi [3]?
Answer: 6.22

Question: And the pKi (D(2) dopamine receptor [4])?
Answer: 6.79

Question: And the pKi [5]?
Answer: 4.75

Question: `O=C1c2cccc3cccc(c23)N1CCCCCCN1CCN(c2ccc(Cl)c(Cl)c2)CC1` was tested. Which pKi [1] did it give?
Answer: 5.73

Question: What about the pKi [2] of the same compound?
Answer: 6.31

Question: What about the pKi [3] of the same compound?
Answer: 6.79

Question: What about the pKi (D(2) dopamine receptor [4]) of the same compound?
Answer: 6.61

Question: And the pKi [5]?
Answer: 6.78

Question: `O=S1(=O)c2cccc3cccc(c23)N1CCCN1CCN(c2ccc(F)cc2)CC1` [FANANSERIN] was tested. Which pKi (D(2) dopamine receptor [8]) did it give?
Answer: < 6.00

Question: `O=S1(=O)c2cccc3cccc(c23)N1CCCN1CCN(c2ccc(Br)cc2)CC1` was tested. Which pKi (D(2) dopamine receptor [8]) did it give?
Answer: < 6.00

Question: And the pKi [9]?
Answer: 8.15

Question: With `O=S1(=O)c2cccc3cccc(c23)N1CCCCCCN1CCN(c2ccc(C(F)(F)F)cc2)CC1` as the compound, how does the pKi [1] read?
Answer: 6.03

Question: What about the pKi [2] of the same compound?
Answer: 5.82

Question: And the pKi [3]?
Answer: 6.00

Question: And the pKi (D(2) dopamine receptor [4])?
Answer: 6.03

Question: What about the pKi [5] of the same compound?
Answer: 5.22

Question: With `O=S1(=O)c2cccc3cccc(c23)N1CCCCCCN1CCN(c2cccc(Cl)c2)CC1` as the compound, how does the pKi [1] read?
Answer: 6.20

Question: What about the pKi [2] of the same compound?
Answer: 6.49

Question: What about the pKi [3] of the same compound?
Answer: 7.34

Question: And the pKi (D(2) dopamine receptor [4])?
Answer: 6.92

Question: And the pKi [5]?
Answer: 6.36

Question: Which results are given for `O=S1(=O)c2cccc3cccc(c23)N1CCCCCCN1CCN(c2ccc(Cl)c(Cl)c2)CC1`?
Answer: pKi [1]: 6.65; pKi [2]: 6.60; pKi [3]: 7.10; pKi (D(2) dopamine receptor [4]): 6.60; pKi [5]: 6.39

Question: With `O=S1(=O)c2cccc3cccc(c23)N1CCCCN1CCN(c2ccccc2)CC1` as the compound, how does the pKi [6] read?
Answer: 6.00

Question: How did the pKi (D(2) dopamine receptor [8]) turn out when `O=S1(=O)c2cccc3cccc(c23)N1CCCN1CCN(c2cccc(F)c2)CC1` was run?
Answer: < 6.00

Question: What about the pKi [9] of the same compound?
Answer: 7.74

Question: `O=S1(=O)c2cccc3cccc(c23)N1CCCN1CCN(c2ccc(Cl)cc2)CC1` was tested. Which pKi (D(2) dopamine receptor [8]) did it give?
Answer: < 6.00

Question: What about the pKi [9] of the same compound?
Answer: 8.30

Question: `COc1ccccc1N1CCN(CCCCCCN2c3cccc4cccc(c34)S2(=O)=O)CC1` was tested. Which pKi [6] did it give?
Answer: 6.70

Question: Which results are given for `O=S1(=O)c2cccc3cccc(c23)N1CCCCCCN1CCN(c2ccc(Cl)cc2)CC1`?
Answer: pKi [1]: 6.36; pKi [2]: 6.83; pKi [3]: 6.71; pKi (D(2) dopamine receptor [4]): 6.47; pKi [5]: 6.55

Question: What does the source list for `O=S1(=O)c2cccc3cccc(c23)N1CCCCCCN1CCN(c2cccc(Cl)c2Cl)CC1`?
Answer: pKi [1]: 6.63; pKi [2]: 6.75; pKi [3]: 6.83; pKi (D(2) dopamine receptor [4]): 6.66; pKi [5]: 6.85

Question: `COc1ccccc1N1CCN(CCCCCN2c3cccc4cccc(c34)S2(=O)=O)CC1` was tested. Which pKi [6] did it give?
Answer: 6.60

Question: `O=C1c2cccc3cccc(c23)N1CCCCCCN1CCN(c2ccccc2F)CC1` was tested. Which pKi [1] did it give?
Answer: 5.76

Question: And the pKi [2]?
Answer: 6.28

Question: What about the pKi [3] of the same compound?
Answer: 7.19

Question: What about the pKi (D(2) dopamine receptor [4]) of the same compound?
Answer: 6.49

Question: What about the pKi [5] of the same compound?
Answer: 6.38

Question: How did the pKi [1] turn out when `O=S1(=O)c2cccc3cccc(c23)N1CCCCCCN1CCN(c2cccc(C(F)(F)F)c2)CC1` was run?
Answer: 6.43

Question: And the pKi [2]?
Answer: 6.22

Question: What about the pKi [3] of the same compound?
Answer: 6.88

Question: And the pKi (D(2) dopamine receptor [4])?
Answer: 6.52

Question: And the pKi [5]?
Answer: 6.78

Question: With `COc1ccccc1N1CCN(CCCCN2c3cccc4cccc(c34)S2(=O)=O)CC1` as the compound, how does the pKi [6] read?
Answer: 6.70

Question: What does the source list for `O=C1c2cccc3cccc(c23)N1CCCCCCN1CCN(c2ccc(Cl)cc2)CC1`?
Answer: pKi [1]: 6.16; pKi [2]: 6.37; pKi [3]: 6.74; pKi (D(2) dopamine receptor [4]): 6.71; pKi [5]: 6.91

Question: With `O=C1c2cccc3cccc(c23)N1CCCCCCN1CCN(c2ccc(Br)cc2)CC1` as the compound, how does the pKi [1] read?
Answer: 5.50

Question: And the pKi [2]?
Answer: 5.83

Question: And the pKi [3]?
Answer: 6.16

Question: What about the pKi (D(2) dopamine receptor [4]) of the same compound?
Answer: 6.69

Question: What about the pKi [5] of the same compound?
Answer: 5.74

Question: With `O=S1(=O)c2cccc3cccc(c23)N1CCCN1CCN(c2ccccc2F)CC1` as the compound, how does the pKi (D(2) dopamine receptor [8]) read?
Answer: < 6.00

Question: What about the pKi [9] of the same compound?
Answer: 8.52

Question: `O=C1c2cccc3cccc(c23)N1CCCCCCN1CCN(c2cccc(Cl)c2Cl)CC1` was tested. Which pKi [1] did it give?
Answer: 6.04

Question: What about the pKi [2] of the same compound?
Answer: 6.39

Question: What about the pKi [3] of the same compound?
Answer: 6.91

Question: And the pKi (D(2) dopamine receptor [4])?
Answer: 7.03

Question: What about the pKi [5] of the same compound?
Answer: 5.29

Question: How did the pKi [1] turn out when `O=C1c2cccc3cccc(c23)N1CCCCCCN1CCN(c2cccc(C(F)(F)F)c2)CC1` was run?
Answer: 5.65

Question: And the pKi [2]?
Answer: 6.11

Question: And the pKi [3]?
Answer: 7.27

Question: What about the pKi (D(2) dopamine receptor [4]) of the same compound?
Answer: 6.30

Question: What about the pKi [5] of the same compound?
Answer: 6.54

Question: With `O=C1c2cccc3cccc(c23)N1CCCCCCN1CCN(c2ccc(C(F)(F)F)cc2)CC1` as the compound, how does the pKi [1] read?
Answer: 5.69

Question: What about the pKi [2] of the same compound?
Answer: 5.36

Question: What about the pKi [3] of the same compound?
Answer: 6.27

Question: And the pKi (D(2) dopamine receptor [4])?
Answer: 6.02

Question: What about the pKi [5] of the same compound?
Answer: 4.31

Question: `O=S1(=O)c2cccc3cccc(c23)N1CCCCCCN1CCN(c2ccccc2Cl)CC1` was tested. Which pKi [1] did it give?
Answer: 6.29

Question: And the pKi [2]?
Answer: 6.26

Question: What about the pKi [3] of the same compound?
Answer: 6.97

Question: What about the pKi (D(2) dopamine receptor [4]) of the same compound?
Answer: 6.85

Question: And the pKi [5]?
Answer: 6.54
